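Five concentrations, 48 hours, 96-well plates. At the GI50, growth is halved. TGI marks complete inhibition of growth.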
Key:
Experiment in all cases: NCI tumour cell line growth inhibition, 48 h
HOP-92 NSCLC = test system: HOP-92 NSCLC
OVCAR-4 ovarian = test system: OVCAR-4 ovarian
HCT-15 colon = test system: HCT-15 colon
HL-60(TB) leukemia = test system: HL-60(TB) leukemia
K-562 leukemia = test system: K-562 leukemia
LOX IMVI melanoma = test system: LOX IMVI melanoma
RXF 393 renal = test system: RXF 393 renal
SF-295 CNS = test system: SF-295 CNS
A498 renal = test system: A498 renal
HCT-116 colon = test system: HCT-116 colon

Compound | GI50 (HOP-92 NSCLC) | TGI (HOP-92 NSCLC) | GI50 (OVCAR-4 ovarian) | TGI (OVCAR-4 ovarian) | TGI (HCT-15 colon) | TGI (HL-60(TB) leukemia) | TGI (K-562 leukemia) | TGI (LOX IMVI melanoma) | TGI (RXF 393 renal) | TGI (SF-295 CNS) | GI50 (A498 renal) | TGI (A498 renal) | GI50 (HCT-116 colon) | TGI (HCT-116 colon) | GI50 (HCT-15 colon) | GI50 (HL-60(TB) leukemia) | GI50 (LOX IMVI melanoma) | GI50 (RXF 393 renal) | GI50 (SF-295 CNS) | GI50 (K-562 leukemia)
CCOC(=O)C1=CSC2=NC3=C(CCC/C3=C\c3cc(OC)c(OC)c(OC)c3)C(c3cc(OC)c(OC)c(OC)c3)N12 (stereo not given) | 0.818 µM | 7.5 µM | 1.32 µM | > 100 µM | – | – | – | – | – | – | – | – | – | – | – | – | – | – | – | –
CC(=O)c1c(O)c2c([nH]c1=O)CCCC2 | – | > 100 µM | – | > 100 µM | > 100 µM | > 100 µM | > 100 µM | > 100 µM | 67.6 µM | 39.7 µM | – | – | – | – | – | – | – | – | – | –
C=C(C)[C@@H]1CC[C@]2(C(=O)n3ccnc3)CC[C@]3(C)[C@H](CC[C@@H]4[C@@]5(C)CCCNC(C)(C)[C@@H]5CC[C@]43C)[C@@H]12 | 1.49 µM | 2.96 µM | – | – | 2.64 µM | 3.47 µM | – | 3.05 µM | 2.92 µM | 3.24 µM | 10.4 µM | 29.8 µM | 1.03 µM | 2.25 µM | 1.26 µM | 1.55 µM | 1.62 µM | 1.5 µM | 1.69 µM | –
O=C(CCC(=O)C1Cc2ccccc2C1=O)Nc1cccc(C(F)(F)F)c1 (stereo not given) | – | > 100 µM | – | > 100 µM | > 100 µM | > 100 µM | > 100 µM | > 100 µM | > 100 µM | > 100 µM | – | – | – | > 100 µM | – | – | – | – | – | –
CC(C)(C)c1cc(C(OCCl)(C(F)(F)F)C(F)(F)F)c2c(c1)C(C(F)(F)F)(C(F)(F)F)OC21c2ccccc2C(=O)c2ccccc21 | – | – | – | > 100 µM | > 100 µM | – | > 100 µM | – | > 100 µM | > 100 µM | – | – | – | > 100 µM | – | – | – | – | – | –
O=[N+]([O-])c1ccc(/C=C\c2ccc3c(c2)OCO3)c([N+](=O)[O-])c1 | – | 53.5 µM | – | – | 37.3 µM | 39 µM | 50.2 µM | 27 µM | 7.76 µM | 59.1 µM | – | 46.7 µM | – | 21.4 µM | – | – | – | – | – | –
O=C(Nc1ccc(Cl)c(Cl)c1)C1C(=O)N(c2ccc(Cl)c(Cl)c2)C(=O)/C1=N\O (stereo not given) | – | > 100 µM | – | > 100 µM | > 100 µM | – | > 100 µM | 87.7 µM | – | > 100 µM | – | > 100 µM | – | > 100 µM | – | – | – | – | – | –
CN1CCOCCOCCOc2ccccc2NC(=O)c2nc(cnc2N)-c2ccc(cc2)S1(=O)=O | – | – | – | – | – | – | – | – | 21.9 µM | > 100 µM | 0.0241 µM | 3.93 µM | – | – | – | – | – | 1.59 µM | 4.52 µM | –
CCOC(=O)c1cc2cc(OCc3ccccc3)ccc2[nH]1 | 62.3 µM | > 100 µM | > 100 µM | > 100 µM | > 100 µM | 66.7 µM | – | > 100 µM | > 100 µM | > 100 µM | > 100 µM | > 100 µM | > 100 µM | > 100 µM | > 100 µM | 12.2 µM | > 100 µM | > 100 µM | > 100 µM | –
Nc1n[nH]c2ccc([C@@H]3Nc4c(F)cc5[nH]ncc5c4[C@H]4C5CCC(C5)[C@@H]34)cc12 (stereo not given in full) | 1.48 µM | > 29.3 µM | 5.81 µM | > 85.8 µM | > 41.5 µM | 0.642 µM | > 52.1 µM | 23.9 µM | – | 18.4 µM | 0.0413 µM | 0.337 µM | 0.293 µM | 6.22 µM | 0.222 µM | 0.243 µM | 0.539 µM | – | 0.11 µM | 0.0546 µM
O=C(O)Cn1ccc(=O)c2c([N+](=O)[O-])cccc21 | – | – | – | – | > 100 µM | > 100 µM | > 100 µM | – | – | > 100 µM | – | > 100 µM | – | > 100 µM | – | – | – | – | – | –
CCOC(=O)n1c2ccccc2c(=O)n1CCO | – | – | – | > 100 µM | > 100 µM | > 100 µM | > 100 µM | – | > 100 µM | > 100 µM | – | > 100 µM | – | > 100 µM | – | – | – | – | – | –
COc1cc2c3c(n(CCCN4CCSCC4)c(=O)c2cc1OC)-c1cc2c(cc1C3=O)OCO2 | 19.4 µM | 46.3 µM | > 100 µM | > 100 µM | > 100 µM | – | 47.8 µM | > 100 µM | 67.8 µM | > 100 µM | – | – | 73.1 µM | > 100 µM | > 100 µM | – | > 100 µM | 27.3 µM | 19 µM | 20.2 µM
Cc1cn2c(/C=C3/C(=O)Nc4ccc(C(=O)O)cc43)c(C)nc2s1 | > 100 µM | > 100 µM | > 100 µM | > 100 µM | > 100 µM | > 100 µM | > 100 µM | > 100 µM | – | > 100 µM | > 100 µM | > 100 µM | – | – | > 100 µM | > 100 µM | > 100 µM | – | > 100 µM | > 100 µM
Nc1c(C(=O)Nc2ccccc2O)[n+]([O-])c2ccccc2[n+]1[O-] | – | > 100 µM | – | > 100 µM | > 100 µM | > 100 µM | > 100 µM | – | – | > 100 µM | – | > 100 µM | – | > 100 µM | – | – | – | – | – | –
COc1ncc2cc1NS(=O)(=O)c1cccc(c1)C(=O)NCC1=CC=C(S1)c1ncnc3c1SC2=C3C | 0.0526 µM | 0.667 µM | 1.22 µM | 10.5 µM | 1.36 µM | – | > 100 µM | 0.499 µM | 0.695 µM | 2.61 µM | 0.188 µM | 0.548 µM | 0.277 µM | 2.85 µM | 0.254 µM | – | 0.0902 µM | 0.0721 µM | 0.0972 µM | 0.596 µM
COc1ccc2c3c(c(C(=O)O)oc13)C(CCC(=O)O)CC2 (stereo not given) | – | > 100 µM | – | > 100 µM | > 100 µM | – | – | > 100 µM | > 100 µM | > 100 µM | – | > 100 µM | – | > 100 µM | – | – | – | – | – | –
Nc1c(-c2nc3ccccc3s2)[n+]([O-])c2ccccc2[n+]1[O-] | – | 62.3 µM | – | > 100 µM | – | 93.5 µM | > 100 µM | – | – | 72.5 µM | – | > 100 µM | – | 63.9 µM | – | – | – | – | – | –
Nc1ncnc2sc(Nc3ccccc3)nc12 | – | > 100 µM | – | > 100 µM | > 100 µM | 64.7 µM | > 100 µM | > 100 µM | – | > 100 µM | – | – | – | – | – | – | – | – | – | –
C1=C(c2ccccc2)C(OC2Oc3ccccc3C=C2c2ccccc2)Oc2ccccc21 (stereo not given) | – | > 100 µM | – | – | > 100 µM | > 100 µM | > 100 µM | > 100 µM | > 100 µM | > 100 µM | – | > 100 µM | – | > 100 µM | – | – | – | – | – | –
